From patent US10077237B2 (Sanofi, priority 2013, dated 2018)
Values joined by “and” are separate entries in the source; they are usually repeats but may differ in a detail not shown here. Equal entries are not always repeated.

Target: T1, recombinant human AMPK complex, containing α2β1γ2 (Homo sapiens, UniProt P54646+Q9Y478)
T1 construct: hsAMPKα2-552-His, hsAMPKβ1-2-270 and hsAMPKγ-2-569 respectively; hsAMPKβ1-2-270; hsAMPKγ-2-569; His (C); made in house; host or cells: Spodoptera frugiperda Sf21 (baculovirus)
T1 sequence (P54646 2-552): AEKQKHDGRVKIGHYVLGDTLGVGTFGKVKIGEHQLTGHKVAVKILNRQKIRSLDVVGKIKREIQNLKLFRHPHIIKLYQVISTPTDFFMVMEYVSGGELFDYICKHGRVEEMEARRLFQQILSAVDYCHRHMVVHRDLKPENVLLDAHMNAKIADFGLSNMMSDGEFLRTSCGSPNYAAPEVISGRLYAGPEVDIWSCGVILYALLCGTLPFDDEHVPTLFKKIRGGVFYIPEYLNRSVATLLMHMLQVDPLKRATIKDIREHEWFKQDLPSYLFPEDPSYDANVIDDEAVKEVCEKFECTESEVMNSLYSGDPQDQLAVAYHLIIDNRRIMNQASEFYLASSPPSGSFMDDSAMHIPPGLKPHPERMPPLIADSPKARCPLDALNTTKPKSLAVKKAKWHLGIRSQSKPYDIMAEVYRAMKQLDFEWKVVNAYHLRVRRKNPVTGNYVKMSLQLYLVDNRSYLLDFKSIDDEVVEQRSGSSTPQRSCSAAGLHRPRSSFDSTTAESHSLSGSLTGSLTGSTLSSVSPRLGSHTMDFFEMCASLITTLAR
T1 sequence (Q9Y478 2-270): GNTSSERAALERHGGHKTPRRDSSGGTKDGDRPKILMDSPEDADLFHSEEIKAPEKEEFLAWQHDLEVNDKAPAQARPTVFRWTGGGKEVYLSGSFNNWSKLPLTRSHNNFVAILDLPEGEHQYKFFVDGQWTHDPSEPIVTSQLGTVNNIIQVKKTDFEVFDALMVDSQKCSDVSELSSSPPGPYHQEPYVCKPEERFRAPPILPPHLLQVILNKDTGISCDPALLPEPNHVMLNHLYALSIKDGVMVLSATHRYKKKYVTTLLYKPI
T1 sequence (Q9UGJ0 2-569 partner limits assumed): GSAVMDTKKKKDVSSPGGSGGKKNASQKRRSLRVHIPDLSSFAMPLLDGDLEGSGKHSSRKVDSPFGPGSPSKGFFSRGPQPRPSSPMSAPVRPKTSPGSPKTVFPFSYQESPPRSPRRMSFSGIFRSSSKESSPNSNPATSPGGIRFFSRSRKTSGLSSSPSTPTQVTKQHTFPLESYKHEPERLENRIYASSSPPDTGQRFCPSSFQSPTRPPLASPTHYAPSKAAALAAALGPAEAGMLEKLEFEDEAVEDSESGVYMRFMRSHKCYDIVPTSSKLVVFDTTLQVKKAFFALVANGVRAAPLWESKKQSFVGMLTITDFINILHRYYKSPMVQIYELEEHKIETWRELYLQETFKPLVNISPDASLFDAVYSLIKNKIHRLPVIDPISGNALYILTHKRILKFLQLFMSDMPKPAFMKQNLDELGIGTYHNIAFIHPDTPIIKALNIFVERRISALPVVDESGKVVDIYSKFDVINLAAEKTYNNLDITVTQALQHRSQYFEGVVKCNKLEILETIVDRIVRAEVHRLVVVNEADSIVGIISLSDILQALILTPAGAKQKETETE
Test: AMPK in vitro activation assay (HTRF)
Format: biochemical
Conditions: for EC50: HTRF, recombinant human α2β1γ2 AMPK, 200 μM ATP, biotinylated ACC-CREBp peptide, repeat determinations on separate lines; for Emax / α2β1γ2 AMPK Emax: potentiation of AMPK activity as percent over the basal signal (without compound)
Method: The recombinant human AMPK complex, containing α2β1γ2 was obtained from baculovirus expression system and generated by cotransfection in Spodoptera frugiperda 21 (Sf21). […] were produced in serum free medium (SF900 II, Invitrogen) for 82 hours after a triple infection at a multiplicity of infection (M.O.I.) of 0.05, 0.06 and 0.045 for hsAMPKα2-552-His, hsAMPKβ1-2-270 and hsAMPKγ-2-569 respectively. Cells were harvested by centrifugation at 1,000×g for 10 minutes at 4° C. and stored at −80° C. The insect cell pellet from 8 liters of culture was resuspended and homogenized in 580 ml of lysis buffer (20 mM Hepes pH 7.5, 150 mM NaCl, 10 mM imidazole, 50 mM NaF, 10% Glycerol and supplemented with EDTA free proteases inhibitor cocktail Roche). The AMPK complex was partially purified using an affinity chromatography under a Ni-NTA Agarose column equilibrated in the lysis buffer and eluted with a gradient (0 to 400 mM) of Imidazol.
A homogeneous time-resolved fluorescence (HTRF) assay was used (Li et al, Anal. Biochem. (2003) 321, 151-156) to identify compounds with stimulating activity for the recombinant human AMPK. Enzyme reaction was performed into a 96-well microtiter plate. First, 20 μL of test compounds in 0.5% DMSO were dispensed followed by 10 μL of protein in 50 mM HEPES buffer at pH 7.0, 100 mM NaCl, 5 mM MgCl2, 0.01% BSA, 0.8 mM DTT. After, 30 min incubation at room temperature, the reaction was initiated by the addition of 10 μL of a solution containing 200 μM of ATP as donor substrate, 2 μM or 0.08 μM of biotinylated ACC-CREBp peptide (PolyPeptide) as acceptor. Plates were then incubated 45 min at 37° C. The reaction was terminated by the addition of 40 μl detection mixture containing Eu^3+ cryptate-conjugated anti-pS^133-CREB antibody and streptavidine-XL665 (CisBio). Plates were further incubated for 2 h30 at room temperature. The fluorescence signal was measured using an Envision multireader (Perkin Elmer). The non-specific signal was obtained without substrates. Potentiation of AMPK activity was expressed as a percent over the basal signal (without compound) from which an EC50 value was determined.
The EC50 of a graded dose response curve represents the concentration of a compound where 50% of its maximal effect is observed.

| EC50 | Emax | α2β1γ2 AMPK Emax | Structure (SMILES) |
| --- | --- | --- | --- |
| 770 nM | 298% | – | Cc1nocc1C(O)=C1C(=O)Nc2cc(Cl)c(-c3ccc(N4CCOCC4)cc3)cc21 [Compound 60, 6-Chloro-3-[1-hydroxy-1-(3-methyl-isoxazol-4-yl)-methylidene]-5-(4-morpholin-4-yl-phenyl)-1,3-dihydro-indol-2-one] |
| 230 nM | 155% | – | Cc1cc(C(O)=C2C(=O)Nc3cc(Cl)c(-c4ccc(C5(CO)CC5)s4)cc32)on1 [Compound 45, 6-Chloro-5-[5-(1-hydroxymethyl-cyclopropyl)-thiophen-2-yl]-3-[1-hydroxy-1-(3-methyl-isoxazol-5-yl)-methylidene]-1,3-dihydro-indol-2-one] |
| 15 nM | 155% | – | O=C1Nc2cc(Cl)c(-c3ccc(C4CC(O)C4)cc3)cc2C1=C(O)c1cc(F)cc(F)c1 (centres unmarked) [Compound 161, 6-chloro-3-[(3,5-difluorophenyl)hydroxy-methylene]-5-[4-(3-hydroxycyclobutyl)phenyl]indolin-2-one] |
| 21 nM | – | (124 +/− 11) % | Cc1cc(C(O)=C2C(=O)Nc3cc(Cl)c(-c4ccc(N(C)C)cc4)cc32)on1 [Compound 1, 6-Chloro-5-(4-dimethylamino-phenyl)-3-[1-hydroxy-1-(3-methyl-isoxazol-5-yl)-methylidene]-1,3-dihydro-indol-2-one] |
| 0.7 nM | 256% | – | COc1cc(C(O)=C2C(=O)Nc3cc(Cl)c(-c4ccc5c(ccn5C)c4)cc32)on1 [Compound 154, 6-chloro-3-[hydroxy-(3-methoxyisoxazol-5-yl)methylene]-5-(1-methylindol-5-yl)indolin-2-one] |
| 0.2 nM | 230% | – | COc1ccc(C(O)=C2C(=O)Nc3cc(F)c(-c4ccc(C5(CO)CC5)cc4)cc32)cc1F [Compound 125, 6-fluoro-3-[(3-fluoro-4-methoxy-phenyl)hydroxy-methylene]-5-[4-[1-(hydroxymethyl)cyclopropyl]phenyl]indolin-2-one] |
| 0.6 nM and 0.4 nM | – | – | COc1ccc(C(O)=C2C(=O)Nc3cc(Cl)c(-c4ccc(C5(CO)CC5)cc4)cc32)cc1F [Compound 88, 6-chloro-3-[(3-fluoro-4-methoxy-phenyl)hydroxy-methylene]-5-[4-[1-(hydroxymethyl)cyclopropyl]phenyl]indolin-2-one] |
| 0.3 nM | 74% | – | CCOc1cc(C(O)=C2C(=O)Nc3cc(Cl)c(-c4ccc(-c5cccc(OC)c5O)cc4)cc32)on1 [Compound 105, 6-chloro-3-[(3-ethoxyisoxazol-5-yl)hydroxy-methylene]-5-[4-(2-hydroxy-3-methoxy-phenyl)phenyl]indolin-2-one] |
| 33 nM | 124% | – | CN(C)c1ccc(-c2cc3c(cc2Cl)NC(=O)C3=C(O)c2cccc(C(=O)O)c2)cc1 [Compound 8, 3-{[6-Chloro-5-(4-dimethylamino-phenyl)-2-oxo-1,2-dihydro-indolylidene]-hydroxy-methyl}-benzoic acid] |
| – | 296% | – | COc1cc(C(O)=C2C(=O)Nc3cc(Cl)c(-c4ccc(N(C)C)cc4)cc32)on1 [Compound 127, 6-chloro-5-(4-dimethylaminophenyl)-3-[hydroxy-(3-methoxyisoxazol-5-yl)methylene]indolin-2-one] |
| 25 nM | – | (94) % | O=C1Nc2cc(Cl)c(-c3ccc(C4(CO)CC4)cc3)cc2C1=C([O-])c1ccccc1F.[Na+] [Compound 47, 6-Chloro-3-[1-(2-fluoro-phenyl)-1-hydroxy-methylidene]-5-[4-(1-hydroxymethyl-cyclopropyl)-phenyl]-1,3-dihydro-indol-2-one, sodium salt] |
| 2 nM | 198% | – | COc1cnccc1C(O)=C1C(=O)Nc2cc(Cl)c(-c3ccc(C4(CO)CC4)cc3)cc21 [Compound 175, 6-chloro-3-[hydroxy-(3-methoxy-4-pyridyl)methylene]-5-[4-[1-(hydroxymethyl)cyclopropyl]phenyl]indolin-2-one] |
| 53 nM | – | (183 +/− 51) % | Cc1cc(C([O-])=C2C(=O)Nc3cc(Cl)c(-c4ccc(N(C)C)cc4)cc32)on1.[Na+] [Compound 2, 6-Chloro-5-(4-dimethylamino-phenyl)-3-[1-hydroxy-1-(3-methyl-isoxazol-5-yl)-methylidene]-1,3-dihydro-indol-2-one, sodium salt] |
| 0.3 nM | 173% | – | O=C1Nc2cc(Cl)c(-c3ccc(C4(CO)CC4)cc3)cc2C1=C(O)c1cc2ccccc2o1 [Compound 168, 3-[benzofuran-2-yl(hydroxy)methylene]6-chloro-5-[4-[1-(hydroxymethyl)cyclopropyl]phenyl]indolin-2-one] |
| 0.1 nM | 191% | – | O=C1Nc2cc(Cl)c(-c3ccc(C4(CO)CC4)cc3)cc2C1=C(O)c1ccncc1F [Compound 160, 6-chloro-3-[(3-fluoro-4-pyridyl)hydroxy-methylene]-5-[4-[1-(hydroxymethyl)cyclopropyl]phenyl]indolin-2-one] |
| 9 nM | 319% | – | COc1cc(C(O)=C2C(=O)Nc3cc(Cl)c(-c4ccc(C5CC(O)C5)cc4)cc32)on1 (centres unmarked) [Compound 135, 6-chloro-5-[4-(3-hydroxycyclobutyl)phenyl]-3-[hydroxy-(3-methoxyisoxazol-5-yl)methylene]indolin-2-one] |
| 6 nM | 197% | – | O=C1Nc2cc(Cl)c(-c3ccc(C4CC(O)C4)cc3)cc2C1=C(O)c1ccccc1F (centres unmarked) [Compound 171, 6-chloro-3-[(2-fluorophenyl)hydroxy-methylene]-5-[4-(3-hydroxycyclobutyl)phenyl]indolin-2-one] |
| 0.5 nM and 0.6 nM | – | – | O=C1Nc2cc(Cl)c(-c3ccc(N4CCOCC4)cc3)cc2C1=C(O)c1cc(C2CC2)no1 [Compound 87, 6-chloro-3-[(3-cyclopropylisoxazol-5-yl)hydroxy-methylene]-5-(4-morpholinophenyl)indolin-2-one] |
| 6 nM | 141% | – | COc1cc(F)c(C(O)=C2C(=O)Nc3cc(Cl)c(-c4ccc(N5CCOCC5)cc4)cc32)cc1F [Compound 108, 6-chloro-3-[(2,5-difluoro-4-methoxy-phenyl)hydroxy-methylene]-5-(4-morpholinophenyl)indolin-2-one] |
| 6 nM | 170% | – | COc1cc(C(O)=C2C(=O)Nc3cc(Cl)c(-c4ccc(N5CCOCC5)c(F)c4)cc32)on1 [Compound 149, 6-chloro-5-(3-fluoro-4-morpholino-phenyl)-3-[hydroxy-(3-methoxyisoxazol-5-yl)methylene]indolin-2-one] |
| 98 nM | 254% | – | O=C1Nc2cc(Cl)c(-c3ccc(N4CCOCC4)cc3)cc2C1=C(O)c1cc(C2CC2)on1 [Compound 62, 6-Chloro-3-[1-(5-cyclopropyl-isoxazol-3-yl)-1-hydroxy-methylidene]-5-(4-morpholin-4-yl-phenyl)-1,3-dihydro-indol-2-one] |
| 3 nM | 158% | – | Cc1cc(C(O)=C2C(=O)Nc3cc(Cl)c(-c4ccc(C5(CO)CC5)cc4)cc32)sn1 [Compound 23, 6-Chloro-5-[4-(1-hydroxymethyl-cyclopropyl)-phenyl]-3-[1-hydroxy-1-(3-methyl-isothiazol-5-yl)-methylidene]-1,3-dihydro-indol-2-one] |
